Measurements reported in US20100029657A1, “Bridged, Bicyclic Heterocyclic or Spiro Bicyclic Heterocyclic Derivatives of Pyrazolo[1, 5-A]Pyrimidines, Methods for Preparation and Uses Thereof” (Wyeth, priority 2008, published 2010).
One block for each compound: values may come before it.

Target: T1, Flag/GST-tagged recombinant human B-Raf (Homo sapiens, UniProt P15056)
T1 construct: Flag; GST; made in house; host or cells: Sf9 insect cells (B-Raf); E. coli (MEK1-GST)
Assay: B-Raf kinase assay (phosphorylation of GST-MEK1, phospho-MEK1 antibody/Europium detection)
Format: biochemical
Details: B-Raf IC50 Data for compounds of Formula A; read-out: Mean IC50
How it was run: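 Percent inhibition was calculated at each compound concentration from Europium time-resolved fluorescence (anti-phospho-MEK1, then Eu-conjugated anti-rabbit) after GST capture. The upstream kinase step used GST-MEK1 with 0.2 nM B-Raf for 45 min at room temperature in MOPS buffer, pH 7.2. It was started with a cocktail of 200 μM ATP and 40 mM MgCl2.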

T1 sequence (P15056 whole entry): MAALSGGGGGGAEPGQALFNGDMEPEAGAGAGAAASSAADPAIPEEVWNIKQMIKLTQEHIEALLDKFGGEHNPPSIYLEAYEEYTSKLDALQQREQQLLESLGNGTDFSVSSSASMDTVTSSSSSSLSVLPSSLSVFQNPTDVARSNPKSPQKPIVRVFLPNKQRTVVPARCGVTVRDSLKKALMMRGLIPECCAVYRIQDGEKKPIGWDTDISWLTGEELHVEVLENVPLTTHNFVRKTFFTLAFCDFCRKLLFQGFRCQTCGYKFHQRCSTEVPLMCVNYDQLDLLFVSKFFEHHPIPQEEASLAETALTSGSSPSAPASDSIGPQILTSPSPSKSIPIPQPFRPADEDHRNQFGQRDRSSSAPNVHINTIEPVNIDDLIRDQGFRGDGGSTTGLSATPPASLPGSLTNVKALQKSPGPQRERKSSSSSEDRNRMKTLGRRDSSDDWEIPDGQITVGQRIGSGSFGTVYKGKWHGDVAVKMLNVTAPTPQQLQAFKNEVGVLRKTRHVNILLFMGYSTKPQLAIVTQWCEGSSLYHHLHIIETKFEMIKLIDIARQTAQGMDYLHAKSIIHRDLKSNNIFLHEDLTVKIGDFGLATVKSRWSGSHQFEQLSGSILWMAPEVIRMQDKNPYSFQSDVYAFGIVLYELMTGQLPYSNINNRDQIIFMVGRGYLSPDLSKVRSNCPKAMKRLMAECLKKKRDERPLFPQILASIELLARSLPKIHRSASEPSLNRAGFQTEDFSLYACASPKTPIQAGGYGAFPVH

Structure (SMILES): CCNC(=O)N1C2CCC1CC(c1ccnc3c(-c4cccc5[nH]ncc45)c(-c4ccncc4)nn13)C2 (stereo not shown) [Example 118, N-ethyl-3-[3-(1H-indazol-4-yl)-2-pyridin-4-ylpyrazolo[1,5-a]pyrimidin-7-yl]-8-azabicyclo[3.2.1]octane-8-carboxamide]
IC50: 6.7 nM

Structure (SMILES): CC(=O)N1C2CCC1CC(c1ccnc3c(-c4cccc5[nH]ncc45)c(-c4ccncc4)nn13)C2 (stereo not shown) [Example 119, 7-(8-acetyl-8-azabicyclo[3.2.1]oct-3-yl)-3-(1H-indazol-4-yl)-2-pyridin-4-ylpyrazolo[1,5-a]pyrimidine]
IC50: 9.1 nM

Structure (SMILES): CN(C)C(=O)N1C2CCC1CC(c1ccnc3c(-c4cccc5[nH]ncc45)c(-c4ccncc4)nn13)C2 (stereo not shown) [Example 120, 3-[3-(1H-indazol-4-yl)-2-pyridin-4-ylpyrazolo[1,5-a]pyrimidin-7-yl]-N,N-dimethyl-8-azabicyclo[3.2.1]octane-8-carboxamide]
IC50: 6.4 nM

Structure (SMILES): COc1cc(-c2c(-c3ccncc3)nn3c(CN4C[C@@H]5C[C@H]4CN5C(=O)OC(C)(C)C)ccnc23)ccc1Cl [Example 121, tert-butyl (1S,4S)-5-{[3-(4-chloro-3-methoxyphenyl)-2-pyridin-4-ylpyrazolo[1,5-a]pyrimidin-7-yl]methyl}-2,5-diazabicyclo[2.2.1]heptane-2-carboxylate]
IC50: > 100 nM

Structure (SMILES): c1cc(-c2ccnc3c(-c4cccc5[nH]ncc45)c(-c4ccncc4)nn23)cc(N2C[C@@H]3C[C@H]2CN3)c1 [Example 124, 7-{3-[(1S,4S)-2,5-diazabicyclo[2.2.1]hept-2-yl]phenyl}-3-(1H-indazol-4-yl)-2-pyridin-4-ylpyrazolo[1,5-a]pyrimidine]
IC50: 37.6 nM

Structure (SMILES): CC(C)(C)OC(=O)N1C[C@@H]2C[C@H]1CN2c1ccc(-c2ccnc3c(-c4ccc(Cl)c5[nH]ncc45)c(-c4ccncc4)nn23)cc1 [Example 125, tert-butyl (1S,4S)-5-{4-[3-(7-chloro-1H-indazol-4-yl)-2-pyridin-4-ylpyrazolo[1,5-a]pyrimidin-7-yl]phenyl}-2,5-diazabicyclo[2.2.1]heptane-2-carboxylate]
IC50: 44.9 nM

Structure (SMILES): CN1C[C@@H]2C[C@H]1CN2c1cccc(-c2ccnc3c(-c4cccc5[nH]ncc45)c(-c4ccncc4)nn23)c1 [Example 126, 3-(1H-indazol-4-yl)-7-{3-[(1S,4S)-5-methyl-2,5-diazabicyclo[2.2.1]hept-2-yl]phenyl}-2-pyridin-4-ylpyrazolo[1,5-a]pyrimidine]
IC50: 61.2 nM

Structure (SMILES): Clc1ccc(-c2c(-c3ccncc3)nn3c(-c4ccc(N5C[C@@H]6C[C@H]5CN6)cc4)ccnc23)c2cn[nH]c12 [Example 127, 3-(7-chloro-1H-indazol-4-yl)-7-{4-[(1S,4S)-2,5-diazabicyclo[2.2.1]hept-2-yl]phenyl}-2-pyridin-4-ylpyrazolo[1,5-a]pyrimidine]
IC50: 31.3 nM

Structure (SMILES): CC(C)(C)OC(=O)N1CCC[C@H]1C(=O)N1C2CCC1CC(c1ccnc3c(-c4cccc5[nH]ncc45)c(-c4ccncc4)nn13)C2 (stereo partly drawn) [Example 128, tert-butyl (2S)-2-({3-[3-(1H-indazol-4-yl)-2-pyridin-4-ylpyrazolo[1,5-a]pyrimidin-7-yl]-8-azabicyclo[3.2.1]oct-8-yl}carbonyl)pyrrolidine-1-carboxylate]
IC50: 39.4 nM

Structure (SMILES): CC(=O)CN1C2CCC1CC(c1ccnc3c(-c4cccc5[nH]ncc45)c(-c4ccncc4)nn13)C2 (stereo not shown) [Example 130, 1-{3-[3-(1H-indazol-4-yl)-2-pyridin-4-ylpyrazolo[1,5-a]pyrimidin-7-yl]-8-azabicyclo[3.2.1]oct-8-yl}propan-2-one]
IC50: 75.9 nM

Structure (SMILES): COc1cccc(-c2c(-c3ccncc3)nn3c(-c4ccc(N5C[C@@H]6C[C@H]5CN6)cc4F)ccnc23)c1 [Example 132, 7-{4-[(1S,4S)-2,5-diazabicyclo[2.2.1]hept-2-yl]-2-fluorophenyl}-3-(3-methoxyphenyl)-2-pyridin-4-ylpyrazolo[1,5-a]pyrimidine]
IC50: 0.4 nM

Structure (SMILES): Cc1cc(N2C[C@@H]3C[C@H]2CN3)ccc1-c1ccnc2c(-c3ccc(F)c4[nH]ncc34)c(-c3ccncc3)nn12 [Example 135, 7-{4-[(1S,4S)-2,5-diazabicyclo[2.2.1]hept-2-yl]-2-methylphenyl}-3-(7-fluoro-1H-indazol-4-yl)-2-pyridin-4-ylpyrazolo[1,5-a]pyrimidine]
IC50: < 0.3 nM

Structure (SMILES): Cc1cc(N2C[C@@H]3C[C@H]2CN3C)ccc1-c1ccnc2c(-c3ccc(F)c4[nH]ncc34)c(-c3ccncc3)nn12 [Example 136, 3-(7-fluoro-1H-indazol-4-yl)-7-{2-methyl-4-[(1S,4S)-5-methyl-2,5-diazabicyclo[2.2.1]hept-2-yl]phenyl}-2-pyridin-4-ylpyrazolo[1,5-a]pyrimidine]
IC50: < 0.3 nM

Structure (SMILES): Fc1ccc(-c2c(-c3ccncc3)nn3c(C4CC5CCC(C4)N5)ccnc23)c2cn[nH]c12 (stereo not shown) [Example 137, 7-(8-azabicyclo[3.2.1]oct-3-yl)-3-(7-fluoro-1H-indazol-4-yl)-2-pyridin-4-ylpyrazolo[1,5-a]pyrimidine]
IC50: 3.8 nM

Structure (SMILES): CN1C2CCC1CN(c1ccc(-c3ccnc4c(-c5cccc6[nH]ncc56)c(-c5ccncc5)nn34)cn1)C2 [Example 140, 3-(1H-indazol-4-yl)-7-[6-(8-methyl-3,8-diazabicyclo[3.2.1]oct-3-yl)pyridin-3-yl]-2-pyridin-4-ylpyrazolo[1,5-a]pyrimidine]
IC50: 1.2 nM

Structure (SMILES): c1cc(-c2c(-c3ccncc3)nn3c(C4CCC5(CC4)OCCO5)ccnc23)c2cn[nH]c2c1 [Example 142, 7-(1,4-dioxaspiro[4.5]dec-8-yl)-3-(1H-indazol-4-yl)-2-pyridin-4-ylpyrazolo[1,5-a]pyrimidine]
IC50: 2.2 nM

Structure (SMILES): CN1C[C@@H]2CC[C@H]1CN2c1ccc(-c2ccnc3c(-c4cccc5[nH]ncc45)c(-c4ccncc4)nn23)cc1 [Example 143, 3-(1H-indazol-4-yl)-7-{4-[(1S,4S)-5-methyl-2,5-diazabicyclo[2.2.2]oct-2-yl]phenyl}-2-pyridin-4-ylpyrazolo[1,5-a]pyrimidine]
IC50: 0.7 nM

Structure (SMILES): CN(C)c1cc(N2C[C@@H]3C[C@H]2CN3)ccc1-c1ccnc2c(-c3cccc4[nH]ncc34)c(-c3ccncc3)nn12 [Example 146, 5-[(1S,4S)-2,5-diazabicyclo[2.2.1]hept-2-yl]-2-[3-(1H-indazol-4-yl)-2-pyridin-4-ylpyrazolo[1,5-a]pyrimidin-7-yl]-N,N-dimethylaniline]
IC50: 6.3 nM

Other lines, results leading:

IC50: 19.1 nM
Structure (SMILES): CC(C)(C)OC(=O)N1C[C@@H]2C[C@H]1CN2c1ccc(-c2ccn3nc(-c4ccncc4)c(-c4ccc(F)c5[nH]ncc45)c3n2)cc1 [Example 122, tert-butyl (1S,4S)-5-{4-[3-(7-fluoro-1H-indazol-4-yl)-2-pyridin-4-ylpyrazolo[1,5-a]pyrimidin-5-yl]phenyl}-2,5-diazabicyclo[2.2.1]heptane-2-carboxylate]

IC50: 2.1 nM
Structure (SMILES): O=C([C@@H]1CCCN1)N1C2CCC1CC(c1ccnc3c(-c4cccc5[nH]ncc45)c(-c4ccncc4)nn13)C2 (stereo partly drawn) [Example 129, 3-(1H-indazol-4-yl)-7-(8-L-prolyl-8-azabicyclo[3.2.1]oct-3-yl)-2-pyridin-4-ylpyrazolo[1,5-a]pyrimidine]

IC50: 1 nM
Structure (SMILES): CCOC(=O)N1C2CCC1CC(c1ccn3nc(-c4ccncc4)c(-c4ccc(F)c5[nH]ncc45)c3n1)C2 (stereo not shown) [Example 131, ethyl 3-[3-(7-fluoro-1H-indazol-4-yl)-2-pyridin-4-ylpyrazolo[1,5-a]pyrimidin-5-yl]-8-azabicyclo[3.2.1]octane-8-carboxylate]

IC50: < 0.3 nM
Structure (SMILES): Oc1cccc(-c2c(-c3ccncc3)nn3c(-c4ccc(N5C[C@@H]6C[C@H]5CN6)cc4F)ccnc23)c1 [Example 133, 3-(7-{4-[(1S,4S)-2,5-diazabicyclo[2.2.1]hept-2-yl]-2-fluorophenyl}-2-pyridin-4-ylpyrazolo[1,5-a]pyrimidin-3-yl)phenol]

IC50: < 0.3 nM
Structure (SMILES): CN1C[C@@H]2C[C@H]1CN2c1ccc(-c2ccnc3c(-c4cccc(O)c4)c(-c4ccncc4)nn23)c(F)c1 [Example 134, 3-(7-{2-fluoro-4-[(1S,4S)-5-methyl-2,5-diazabicyclo[2.2.1]hept-2-yl]phenyl}-2-pyridin-4-ylpyrazolo[1,5-a]pyrimidin-3-yl)phenol]

IC50: 0.4 nM
Structure (SMILES): N#CCN1C2CCC1CC(c1ccnc3c(-c4ccc(F)c5[nH]ncc45)c(-c4ccncc4)nn13)C2 (stereo not shown) [Example 138, {3-[3-(7-fluoro-1H-indazol-4-yl)-2-pyridin-4-ylpyrazolo[1,5-a]pyrimidin-7-yl]-8-azabicyclo[3.2.1]oct-8-yl}acetonitrile]

IC50: 1.2 nM
Structure (SMILES): Clc1ccc(-c2c(-c3ccncc3)nn3ccc(-c4ccc(N5C[C@@H]6C[C@H]5CN6)cc4)nc23)c2cn[nH]c12 [Example 139, 3-(7-chloro-1H-indazol-4-yl)-5-{4-[(1S,4S)-2,5-diazabicyclo[2.2.1]hept-2-yl]phenyl}-2-pyridin-4-ylpyrazolo[1,5-a]pyrimidine]

IC50: 2.3 nM
Structure (SMILES): CN1C[C@@H]2C[C@H]1CN2c1ccc(-c2ccnc3c(-c4ccc(Cl)c5[nH]ncc45)c(-c4ccncc4)nn23)cc1 [Example 141, 3-(7-chloro-1H-indazol-4-yl)-7-{4-[(1S,4S)-5-methyl-2,5-diazabicyclo[2.2.1]hept-2-yl]phenyl}-2-pyridin-4-ylpyrazolo[1,5-a]pyrimidine]

IC50: 0.6 nM
Structure (SMILES): c1cc(-c2c(-c3ccncc3)nn3c(-c4ccc(N5C[C@@H]6CC[C@H]5CN6)cc4)ccnc23)c2cn[nH]c2c1 [Example 144, 7-{4-[(1S,4S)-2,5-diazabicyclo[2.2.2]oct-2-yl]phenyl}-3-(1H-indazol-4-yl)-2-pyridin-4-ylpyrazolo[1,5-a]pyrimidine]

IC50: 74.4 nM
Structure (SMILES): Fc1cc(F)c(-c2ccnc3c(-c4cccc5[nH]ncc45)c(-c4ccncc4)nn23)c(N2C[C@@H]3C[C@H]2CN3)c1 [Example 145, 7-{2-[(1S,4S)-2,5-diazabicyclo[2.2.1]hept-2-yl]-4,6-difluorophenyl}-3-(1H-indazol-4-yl)-2-pyridin-4-ylpyrazolo[1,5-a]pyrimidine]
